Source: US8148531B2 (Chroma Therapeutics Ltd., priority 2005, dated 2012)

Key:
Type in all cases: cell-based
U937 cell line = assay: Cell inhibition assay (SRB cell viability), U937; conditions: Homo sapiens, U-937, IC50 range class, 72 h, read-out: Inhibitor Activity vs U937 cell line
Description: (§1) The corresponding cancer cell lines (U937, HCT 116 and HUT) growing in log phase were harvested and seeded at 1000 cells/well (200 ul final volume) into 96-well tissue culture plates. Following 24 h of cell growth cells were treated with compounds (final concentration of 20 uM). Plates were then re-incubated for a further 72 h before a sulphorhodamine B (SRB) cell viability assay was conducted according to Skehan 1990 J Natl Canc Inst 82, 1107-1112.
(§2) Data were expressed as a percentage inhibition of the control, measured in the absence of inhibitor, as follows: — % inhibition=100−((S^i/S^o)×100) where S^i is the signal in the presence of inhibitor and S^o is the signal in the presence of DMSO.
(§3) IC50 values were determined by non-linear regression analysis, after fitting the results of eight data points to the equation for sigmoidal dose response with variable slope (% activity against log concentration of compound), using Graphpad Prism software.

HCT 116 cell line = assay: Cell inhibition assay (SRB cell viability), HCT 116; conditions: Homo sapiens, IC50 range class, 72 h, read-out: Inhibitor Activity vs HCT 116 cell line
Description: as §1, §2, §3

HUT cell line = assay: Cell inhibition assay (SRB cell viability), HUT; conditions: IC50 range class, 72 h, read-out: Inhibitor Activity vs HUT cell line
Description: as §1, §2, §3

With `COc1cc2c(Oc3ccc(NC(=O)c4ccc(F)cc4F)cc3)ccnc2cc1OCC[C@H](N)C(=O)OC1CCCC1` [Example 65, (S)-2-Amino-4-{4-[4-(2,4-difluoro-benzoylamino)-phenoxy]-6-methoxy-quinolin-7-yloxy}-butyric acid cyclopentyl ester] the IC50 (U937 cell line) was under 1000 nM, the IC50 (HCT 116 cell line) was under 1000 nM and the IC50 (HUT cell line) was under 1000 nM.

With `COc1cc2c(Oc3ccc(NC(=O)c4ccc(Cl)cc4)cc3)ccnc2cc1OCC[C@H](N)C(=O)OC1CCCC1` [Example 66, (S)-2-Amino-4-{4-[4-(4-chloro-benzoylamino)-phenoxy]-6-methoxy-quinolin-7-yloxy}-butyric acid cyclopentyl ester] the IC50 (U937 cell line) was under 1000 nM, the IC50 (HCT 116 cell line) was under 1000 nM and the IC50 (HUT cell line) was under 1000 nM.

For `COc1cc2c(Oc3ccc(NC(=O)c4cc(C(F)(F)F)ccc4F)cc3)ccnc2cc1OCC[C@H](N)C(=O)OC1CCCC1` [Example 68, (S)-2-Amino-4-{4-[4-(2-fluoro-5-trifluoromethyl-benzoylamino)-phenoxy]-6-methoxy-quinolin-7-yloxy}-butyric acid cyclopentyl ester], the IC50 (U937 cell line) was under 1000 nM, the IC50 (HCT 116 cell line) was under 1000 nM and the IC50 (HUT cell line) was under 1000 nM.

For `COc1cc2c(Oc3ccc(NC(=O)c4ccc(OC(F)(F)F)cc4)cc3)ccnc2cc1OCC[C@H](N)C(=O)OC1CCCC1` [Example 70, (S)-2-Amino-4-{6-methoxy-4-[4-(4-trifluoromethoxy-benzoylamino)-phenoxy]-quinolin-7-yloxy}-butyric acid cyclopentyl ester], the IC50 (U937 cell line) was under 1000 nM, the IC50 (HCT 116 cell line) was under 1000 nM and the IC50 (HUT cell line) was under 1000 nM.

For `COc1cc2c(Oc3ccc(NC(=O)C4=C(C)c5ccccc5C4)cc3)ccnc2cc1OCC[C@H](N)C(=O)OC1CCCC1` [Example 72, (S)-2-Amino-4-(6-methoxy-4-{4-[(3-methyl-1H-indene-2-carbonyl)-amino]-phenoxy}-quinolin-7-yloxy)-butyric acid cyclopentyl ester], the IC50 (U937 cell line) was under 1000 nM, the IC50 (HCT 116 cell line) was under 1000 nM and the IC50 (HUT cell line) was under 1000 nM.

`COc1cc2c(Oc3ccc(NS(=O)(=O)c4ccccc4)cc3)ccnc2cc1OCC[C@H](N)C(=O)OC1CCCC1` [Example 73, (S)-2-Amino-4-[4-(4-benzenesulfonylamino-phenoxy)-6-methoxy-quinolin-7-yloxy]-butyric acid cyclopentyl ester] gave an IC50 (U937 cell line) of 1000 to 5000 nM, an IC50 (HCT 116 cell line) of over 5000 nM and an IC50 (HUT cell line) of 1000 to 5000 nM.

`COc1cc2c(Oc3ccc(NC(=O)c4cccs4)cc3)ccnc2cc1OCC[C@H](N)C(=O)OC1CCCC1` [Example 75, (S)-2-Amino-4-(6-methoxy-4-{4-[(thiophene-2-carbonyl)-amino]-phenoxy}-quinolin-7-yloxy)-butyric acid cyclopentyl ester] showed an IC50 (U937 cell line) of under 1000 nM, an IC50 (HCT 116 cell line) of under 1000 nM and an IC50 (HUT cell line) of under 1000 nM.

Molecule `COc1cc2c(Oc3ccc(CC(=O)Nc4ccc(C(F)(F)F)cc4)cc3)ccnc2cc1OCC[C@H](N)C(=O)OC1CCCC1` [Example 79, (S)-2-Amino-4-(6-methoxy-4-{4-[(4-trifluoromethyl-phenylcarbamoyl)-methyl]-phenoxy}-quinolin-7-yloxy)-butyric acid cyclopentyl ester] has an IC50 (U937 cell line) of under 1000 nM, an IC50 (HCT 116 cell line) of under 1000 nM and an IC50 (HUT cell line) of under 1000 nM.

In the case of `COc1cc2c(Oc3ccc(CC(=O)Nc4ccccc4)cc3)ccnc2cc1OCC[C@H](N)C(=O)OC1CCCC1` [Example 80, (S)-2-Amino-4-[6-methoxy-4-(4-phenylcarbamoylmethyl-phenoxy)-quinolin-7-yloxy]-butyric acid cyclopentyl ester], the IC50 (U937 cell line) is reported as under 1000 nM, the IC50 (HCT 116 cell line) is reported as under 1000 nM and the IC50 (HUT cell line) is reported as under 1000 nM.

For `COc1cc2c(Oc3ccc(CC(=O)Nc4ccccc4F)cc3)ccnc2cc1OCC[C@H](N)C(=O)OC1CCCC1` [Example 82, (S)-2-Amino-4-(4-{4-[(2-fluoro-phenylcarbamoyl)-methyl]-phenoxy}-6-methoxy-quinolin-7-yloxy)-butyric acid cyclopentyl ester], the IC50 (U937 cell line) was under 1000 nM, the IC50 (HCT 116 cell line) was under 1000 nM and the IC50 (HUT cell line) was under 1000 nM.

Molecule `COc1cc2c(Oc3ccc(CC(=O)Nc4cccc(F)c4)cc3)ccnc2cc1OCC[C@H](N)C(=O)OC1CCCC1` [Example 84, (S)-2-Amino-4-(4-{4-[(3-fluoro-phenylcarbamoyl)-methyl]-phenoxy}-6-methoxy-quinolin-7-yloxy)-butyric acid cyclopentyl ester] has an IC50 (U937 cell line) of under 1000 nM, an IC50 (HCT 116 cell line) of under 1000 nM and an IC50 (HUT cell line) of under 1000 nM.

With `COc1cc2c(Oc3ccc(CC(=O)Nc4ccc(F)cc4)cc3)ccnc2cc1OCC[C@H](N)C(=O)OC1CCCC1` [Example 86, (S)-2-Amino-4-(4-{4-[(4-fluoro-phenylcarbamoyl)-methyl]-phenoxy}-6-methoxy-quinolin-7-yloxy)-butyric acid cyclopentyl ester] the IC50 (U937 cell line) was under 1000 nM, the IC50 (HCT 116 cell line) was under 1000 nM and the IC50 (HUT cell line) was under 1000 nM.

`COc1cc2c(Oc3ccc(CC(=O)Nc4ccc(F)cc4F)cc3)ccnc2cc1OCC[C@H](N)C(=O)OC1CCCC1` [Example 88, (S)-2-Amino-4-(4-{4-[(2,4-difluoro-phenylcarbamoyl)-methyl]-phenoxy}-6-methoxy-quinolin-7-yloxy)-butyric acid cyclopentyl ester] showed an IC50 (U937 cell line) of under 1000 nM, an IC50 (HCT 116 cell line) of under 1000 nM and an IC50 (HUT cell line) of under 1000 nM.

Work on `COc1ccc(NC(=O)Cc2ccc(Oc3ccnc4cc(OCC[C@H](N)C(=O)OC5CCCC5)c(OC)cc34)cc2)cc1` [Example 90, (S)-2-Amino-4-(6-methoxy-4-{4-[(4-methoxy-phenylcarbamoyl)-methyl]-phenoxy}-quinolin-7-yloxy)-butyric acid cyclopentyl ester] yielded an IC50 (U937 cell line) of under 1000 nM, an IC50 (HCT 116 cell line) of under 1000 nM and an IC50 (HUT cell line) of under 1000 nM.

Molecule `COc1cc2c(Oc3ccc(-c4noc(-c5ccccc5)n4)cc3)ccnc2cc1OCC[C@H](N)C(=O)OC1CCCC1` [Example 92, (S)-2-Amino-4-{6-methoxy-4-[4-(5-phenyl-[1,2,4]oxadiazol-3-yl)-phenoxy]-quinolin-7-yloxy}-butyric acid cyclopentyl ester] has an IC50 (U937 cell line) of over 5000 nM, an IC50 (HCT 116 cell line) of over 5000 nM and an IC50 (HUT cell line) of over 5000 nM.

`COc1cc2c(Oc3ccc(NC(=O)Nc4ccc5c(c4)CCC5)cc3)ccnc2cc1OCC[C@H](N)C(=O)OC1CCCC1` [Example 97, (S)-2-Amino-4-{4-[4-(3-indan-5-yl-ureido)-phenoxy]-6-methoxy-quinolin-7-yloxy}-butyric acid cyclopentyl ester] gave an IC50 (U937 cell line) of under 1000 nM, an IC50 (HCT 116 cell line) of under 1000 nM and an IC50 (HUT cell line) of under 1000 nM.

With `COc1cc2c(Oc3ccc(NC(=O)c4ccc(C(F)(F)F)cc4)cc3)ccnc2cc1OCC[C@@H](N)C(=O)OC1CCCC1` [Example 103, (R)-2-Amino-4-{6-methoxy-4-[4-(4-trifluoromethyl-benzoylamino)-phenoxy]-quinolin-7-yloxy}-butyric acid cyclopentyl ester] the IC50 (U937 cell line) was under 1000 nM, the IC50 (HCT 116 cell line) was under 1000 nM and the IC50 (HUT cell line) was under 1000 nM.

With `COc1cc2c(Oc3ccc(NC(=O)Nc4ccc(C(F)(F)F)cc4)cc3)ccnc2cc1OCC[C@@H](N)C(=O)OC1CCCC1` [Example 104, (R)-2-Amino-4-(6-methoxy-4-{4-[3-(4-trifluoromethyl-phenyl)-ureido]-phenoxy}-quinolin-7-yloxy)-butyric acid cyclopentyl ester] the IC50 (U937 cell line) was under 1000 nM, the IC50 (HCT 116 cell line) was under 1000 nM and the IC50 (HUT cell line) was under 1000 nM.

In the case of `COc1cc2c(Oc3ccc(NC(=O)c4ccc(C(F)(F)F)cc4)cc3F)ccnc2cc1OCC[C@@H](N)C(=O)OC1CCCC1` [Example 106, (R)-2-Amino-4-{4-[2-fluoro-4-(4-trifluoromethyl-benzoylamino)-phenoxy]-6-methoxy-quinolin-7-yloxy}-butyric acid cyclopentyl ester], the IC50 (U937 cell line) is reported as under 1000 nM, the IC50 (HCT 116 cell line) is reported as under 1000 nM and the IC50 (HUT cell line) is reported as under 1000 nM.

Work on `COc1cc2c(Oc3ccc(-c4noc(-c5ccccc5)n4)cc3)ccnc2cc1OCC[C@@H](N)C(=O)OC1CCCC1` [Example 107, (R)-2-Amino-4-{6-methoxy-4-[4-(5-phenyl-[1,2,4]oxadiazol-3-yl)-phenoxy]-quinolin-7-yloxy}-butyric acid cyclopentyl ester] yielded an IC50 (U937 cell line) of over 5000 nM, an IC50 (HCT 116 cell line) of over 5000 nM and an IC50 (HUT cell line) of over 5000 nM.

With `COc1cc2c(Oc3ccc(NC(=O)Nc4ccc(C(F)(F)F)cc4)cc3F)ccnc2cc1OCC[C@@H](N)C(=O)OC1CCCC1` [Example 108, (R)-2-Amino-4-(4-{2-fluoro-4-[3-(4-trifluoromethyl-phenyl)-ureido]-phenoxy}-6-methoxy-quinolin-7-yloxy)-butyric acid cyclopentyl ester] the IC50 (U937 cell line) was under 1000 nM, the IC50 (HCT 116 cell line) was under 1000 nM and the IC50 (HUT cell line) was under 1000 nM.

`COc1cc2c(Oc3ccc(NC(=O)Nc4ccc(C(F)(F)F)cc4)cc3)ccnc2cc1OCCC[C@H](N)C(=O)OC1CCCC1` [Example 113, (S)-2-Amino-5-(6-methoxy-4-{4-[3-(4-trifluoromethyl-phenyl)-ureido]-phenoxy}-quinolin-7-yloxy)-pentanoic acid cyclopentyl ester] was tested, and the IC50 (U937 cell line) was under 1000 nM, the IC50 (HCT 116 cell line) was under 1000 nM and the IC50 (HUT cell line) was under 1000 nM.

With `COc1cc2c(Sc3ccc(NC(=O)Nc4ccc(C(F)(F)F)cc4)cc3)ccnc2cc1OCCC[C@@H](N)C(=O)OC1CCCC1` [Example 121, (R)-2-Amino-5-(6-methoxy-4-{4-[3-(4-trifluoromethyl-phenyl)-ureido]-phenylsulfanyl}-quinolin-7-yloxy)-pentanoic acid cyclopentyl ester] the IC50 (U937 cell line) was under 1000 nM, the IC50 (HCT 116 cell line) was under 1000 nM and the IC50 (HUT cell line) was under 1000 nM.
